In US20150087722A1, “TREATMENT FOR BREAST TUMOR CELL METASTASIS” (China Medical University, priority 2012, published 2015):
Where two headings read alike, the source gives them in different places.

Assays:
Format in all cases: cell-based
[1] = test system: breast tumor cells MCF-7; assay: MTT cell viability assay; conditions: Homo sapiens, MCF7
Experimental: (§1) The breast tumor cells (MDA-MB-231, MDA-MB-435, MDA-MB-453, MDA-MB-468 and MCF-7) were commercially obtained from the bioresource collection and research center (BCRC), and were cultured in a 10% FBS-DMEM culture medium (i.e., a DMEM culture medium including 10% fetal bovine serum (FBS)). The human breast cell MCF-10A was cultured in a 5% FBS-DMEM culture medium (including F12, insulin, hydrocortisol and epidermal growth factor). An environment of 5% CO2 was kept in the incubator at a constant temperature of 37° C. When a certain number of cells were generated in culture, the culture medium was removed after being centrifuged for 10 min at a rate of 900 rpm. The culture medium was replaced in 24 h before the experiment, and the number of cells was counted by a hemocytometer.
(§2) The cell viability was determined by a method of […] (MTT assay). The test method for assaying cell viability refers to steps provided by Parada-Turska et al.
(§3) The breast tumor cells MDA-MB-231 were inoculated in a 24-well plate (2.5×10^5 cells/well), and the next day after cells were adhered to the wall of the plate, the cells were washed with PBS. 1% FBS-DMEM culture medium was then added so as to synchronize cells. The next day compound II having different concentrations were added into the wells, and the cells were subsequently cultured in an atmosphere of 5% CO2 at 37° C. for 24 h. The cells were washed with PBS once, and 400 μl MTT agent was added in each well so as to react for 4 h. Then 400 μl 10% SDS was added in each well so as to react for 12 h. 200 μl supernatant was taken from the well and then added into a 96-well microplate, so as to measure the absorbance at 570 nm.

[2] = test system: human normal breast cells MCF-10A; assay: MTT cell viability assay
Experimental: as §1, §2, §3

[3] = test system: MMP-9 and MMP2 in human normal breast cells MCF-10A stimulated by TNF-α/TGF-β; assay: Zymography enzyme activity assay
Source text: Referring to FIG. 8B, the Zymography enzyme activity assay was used to detect effect of the compound II in different doses on enzyme activities of the MMP-9, MMP2 and uPA in the breast tumor cells MDA-MB-231. Moreover, referring to FIG. 9, the Zymography enzyme activity assay was used to detect effect of the compound I on enzyme activities of the MMP-9 and MMP2 in the human normal breast cells MCF-10A stimulated by TNF-α/TGF-β. In the Zymography enzyme activity assay, the cells (1×10^6) were planted in a 6-well plate. The next day after the cells were adhered to the wall, the cells were cultured in a serum free DMEM culture medium at an atmosphere of 5% CO2 in an incubator at 37° C. for 24 h. The compound II in different doses were added into the DMEM culture medium. In other test groups, the compound I was added, TNF-α/TGF-β were added or the compound I and TNF-α/TGF-β were added into the DMEM culture medium, wherein the concentration of compound I and TNF-α/TGF-β were 2 mM and 10 ng/ml, respectively. The cells were cultured in the culture medium for 2 h and then washed with PBS. The cell culture medium was putted into a microcentrifuge tube and centrifuged for 10 min at 1500 rpm. The supernatant was taken to perform a protein gel electrophoresis (SDS-PAGE), so as to separate the proteins. […]

`COC1=C(OC)C(=O)C(C)=C(C)C1=O` [compound II] showed an IC50 ([1]; 0-40 μM for 24 h, FIG. 1A, read-out: IC50 for inhibiting the MCF-7) of roughly 30 µM, an IC50 ([1]; viability, MCF-7 cell strain, Table 1, read-out: IC50) of 27.7 µM and an IC50 ([2]; MCF-10A, 0-40 μM for 24 h, FIG. 1A, read-out: IC50 for inhibiting the normal breast cells MCF-10A) of roughly 25 µM. For the same compound, the IC50 ([2]; viability, MCF-10A cell strain, Table 1, read-out: IC50) was 24.1 µM.

For `COC1=C(OC)C(=O)C(C)=CC1=O` [compound I], the “enzyme activities of MMP-2 and MMP-9” value ([3]; compound alone) was “decreased” and the “enzyme activities of MMP-2 and MMP-9” value ([3]; with TNF-α/TGF-β simultaneously) was “recovered the increase caused by TNF-α/TGF-β stimulating”.
